Where “and” joins values, the source holds several entries; their conditions need not be identical. Equal values may be shown once. Entries after “also recorded” stand apart in the source; their conditions may differ.

Test [1] has as its system T1, SAMHD1.
T1 construct: The catalytic domain of SAMHD1 (residues 115 to 626) was expressed and purified as previously described; made in house
To be noted: cited from earlier work; for Hydrolytic activity of SAMHD1 on the compound: in vitro.

The test system of the next test is HIV-1. On the set-up: method as in PMID 24867973, PMID 23744077, PMID 24913159. To be noted: monocyte-derived macrophages and activated CD4+ T cells; cited from earlier work.
The test system of test [2] is T1, SAMHD1. Description: Malachite green endpoint Ppx1-coupled assay of SAMHD1 (compound screening). It is filed as biochemical, human. The settings on record: for SAMHD1 inhibition (TTP hydrolysis after inclusion of test compound): 200 μM compound, 200 μM GTP, 1 mM TTP; for Hydrolysis by GTP-activated SAMHD1: 1 mM compound plus 200 μM GTP, relative to control TTP; for SAMHD1 activation (TTP hydrolysis relative to control GTP): 200 μM compound as activator, 1 mM TTP substrate. As for the experimental part:
The substrates and compounds were obtained from Jena Biosciences (Jena, Germany) or Thermo Fisher Scientific (Massachusetts, USA). The phosphate concentration was determined using the recommended protocol supplied with the PiColorLock gold phosphate detection system from Innova Biosciences (Cambridge, United Kingdom). Time-course assays were conducted in low-protein-binding 96-well black plates (Corning, USA). The absorbance was measured using a Tecan Safire^2 (Männedorf, Switzerland) plate reader at 630 nm in a fixed-wavelength mode. All the assays were prepared as master mixes immediately before use in a reaction buffer containing 20 mM Tris-HCl, 150 mM NaCl, 5 mM MgCl2, and 2 mM TCEP at pH 7.5.
To determine the triphosphohydrolase activity of SAMHD1, 1 mM substrate and 200 μM allosteric activator were incubated with 5 μM SAMHD1 and 500 nM Ppx1. Fixed-volume samples were removed at predetermined time intervals, and activity was stopped by the addition of 0.25 vol of gold mix (PiColorLock gold) through acidification to a pH of approximately 1.0. After 5 min of incubation at 25°C, 0.1 volume of stabilizer solution (PiColorLock gold) was added, and the mixtures were incubated for a further 30 min at 25°C. The final absorbance was measured as 630 nm by scanning 10 times and averaging data. Each assay was completed in triplicate. The triplicated readings were averaged and normalized by subtracting the average zero-standard optical density. The averaged optical density reading was then compared to a known standard of monophosphate to calculate the concentration of phosphate released.
To determine whether a compound was both a substrate and an allosteric activator of SAMHD1, only 1 mM of the compound of interest was included in the reaction. To test if a compound was a substrate for activated SAMHD1, 1 mM of the compound plus 200 μM GTP was included.

The target of test [3] is T2, SAMHD1 (residues 115 to 626) (Homo sapiens, UniProt Q9Y3Z3).
T2 construct: The catalytic domain of SAMHD1 (residues 115 to 626) was expressed and purified as previously described; made in house
Nature of the test: Continuous enzyme-coupled (Ppx1 / MDCC-PBP) real-time assay of SAMHD1 triphosphohydrolase activity. It is filed as biochemical. The settings on record: for KA, apparent dissociation constant for activator binding (activator concentration for half-maximal hydrolysis of TTP substrate): TTP substrate 1 mM, activator varied; for Inhibitory effect on steady-state TTP hydrolysis by GTP-activated SAMHD1 (in words): increasing amounts of compound. As for the experimental part:
The steady-state kinetics of SAMHD1 were determined by a coupled-enzyme assay using Ppx1 and a fluorescent phosphate biosensor, MDCC-PBP. The reactions were set up in 20-μl volumes in 384-well low-protein-binding microplates (Corning, USA), and the time-dependent fluorescence signal was measured using a Tecan Saffire^2 multiwell plate reader (Männedorf, Switzerland). Solutions containing SAMHD1 (residues 115 to 626), Ppx1, MDCC-PBP, an activator, and an inhibitor (if present) were incubated for 5 min at 25°C before the reaction was initiated by the addition of the substrate. The final concentrations were 100 nM SAMHD1, 10 nM Ppx1, and 40 μM MDCC-PBP. Depending on the experiment, the concentration of the substrate, the activator, or the inhibitor varied while the substrate and/or the activator was held constant at 1 mM and 0.2 mM, respectively. The fluorescence intensity was recorded at 430 nm for excitation and 465 nm for emission wavelengths, with a 7-nm slit width, at 8- to 10-s time intervals over a period of 10 to 30 min. The standard curves were obtained by incubating 40 μM MDCC-PBP with different concentrations of phosphate (Pi) and measuring the fluorescence, as discussed above. The fluorescence response was linear and in the range of 0 to 20 μM Pi.
The steady-state rates were obtained from the time courses of Pi formation by linear regression of the data points in the linear phase of the reaction. Rates were divided by the SAMHD1 concentration and were plotted versus the activator, substrate, or inhibitor concentration. Apparent dissociation constants for the activator (KA) or the substrate binding (KS) and the catalytic constant (kcat) were determined by nonlinear least-squares fitting using either a hyperbolic or a Hill-function equation in the software package GraFit 7.0.3 (Erithacus Software, United Kingdom) ([22]). […] Data from the three different experiments were analyzed by a least-squares fit using the equation for competitive inhibition. The fits for the three data sets yielded invariant values for the inhibition constants (Ki), supporting a competitive mode of inhibition. All measurements were performed in triplicate in the reaction buffer.

The next test has as its target T3, Ppx1 (Saccharomyces cerevisiae, UniProt P38698).
T3 construct: StrepII-tag (N); made in house; host or cells: Escherichia coli BL21(DE3)
Nature of the test: Ppx1 triphosphate hydrolysis kinetics and specificity controls. Format: biochemical. To be noted: recombinant Ppx1 0.3 nM, 25°C, MDCC-PBP. On the procedure: Sample controls were used to check for potential Ppx1 activity on the compounds and the reagents. In these assays, the 200 μM compound was incubated in a reaction buffer at 25°C for 30 s with 500 nM Ppx1, either with or without 200 μM triphosphate. The Ppx1 activity was determined by measuring phosphate release with malachite green detection, as described for the coupled assay above.
The initial control experiments were undertaken to assess the suitability of Ppx1 as a coupled enzyme for the assay. The Km for Ppx1 hydrolysis of a polyphosphate ranged from 0.004 to 140 μM ([23]) for P250 to P3 substrates, with kcat values between 180 and 1,500 s^−1 at 37°C, depending on the preparation ([23][–][25]). […] Over the triphosphate substrate concentration range employed in the assays, this rate is substantially higher than that of SAMHD1 dNTP hydrolysis (kcat, ∼1.3 s^−1) and so is suitable as the coupling enzyme in an assay. […]
FIG 2 Kinetics and specificity of Ppx1 hydrolysis. (A) Steady-state kinetics of Ppx1-catalyzed triphosphate cleavage to Pi and PPi were measured using 40 μM MDCC-PBP, 0.3 nM Ppx1, and various concentrations of the triphosphate. The error bars represent the SEM of three independent measurements recorded at each substrate concentration. […] (B) Specificity of Ppx1 hydrolysis was measured using the malachite green endpoint assay. […]

T2 sequence (Q9Y3Z3 115-626): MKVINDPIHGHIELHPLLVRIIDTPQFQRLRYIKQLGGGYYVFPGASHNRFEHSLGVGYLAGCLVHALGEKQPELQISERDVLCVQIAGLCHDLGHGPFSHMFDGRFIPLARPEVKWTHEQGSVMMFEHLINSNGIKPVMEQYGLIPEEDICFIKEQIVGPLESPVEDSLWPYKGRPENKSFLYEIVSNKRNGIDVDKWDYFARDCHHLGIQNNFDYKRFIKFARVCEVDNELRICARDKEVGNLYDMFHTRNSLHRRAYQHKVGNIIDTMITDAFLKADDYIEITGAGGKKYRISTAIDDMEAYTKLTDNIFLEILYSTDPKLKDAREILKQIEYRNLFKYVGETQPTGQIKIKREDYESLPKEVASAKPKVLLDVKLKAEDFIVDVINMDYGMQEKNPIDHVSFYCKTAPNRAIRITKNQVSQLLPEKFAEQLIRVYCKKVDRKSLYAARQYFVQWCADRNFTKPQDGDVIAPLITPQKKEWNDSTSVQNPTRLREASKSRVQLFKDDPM
T3 sequence (P38698 whole entry): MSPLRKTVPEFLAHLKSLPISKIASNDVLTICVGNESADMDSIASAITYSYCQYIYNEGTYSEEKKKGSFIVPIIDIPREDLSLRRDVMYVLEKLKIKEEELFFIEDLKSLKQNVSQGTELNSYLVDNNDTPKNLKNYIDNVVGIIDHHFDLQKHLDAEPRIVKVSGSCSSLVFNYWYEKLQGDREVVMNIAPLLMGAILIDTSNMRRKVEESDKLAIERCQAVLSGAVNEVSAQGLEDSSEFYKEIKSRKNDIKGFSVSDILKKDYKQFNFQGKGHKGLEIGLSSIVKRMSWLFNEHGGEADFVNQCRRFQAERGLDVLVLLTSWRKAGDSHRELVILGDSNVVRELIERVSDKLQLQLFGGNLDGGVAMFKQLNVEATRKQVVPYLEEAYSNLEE

`Nc1ccn([C@H]2CS[C@@H](COP(=O)(O)OP(=O)(O)OP(=O)(O)O)O2)c(=O)n1` [3TC-TP, 2′,3′-dideoxy-3′-thiacytidine triphosphate]: the “Hydrolytic activity of SAMHD1 on the compound” value (“Hydrolytic activity of SAMHD1” below) in the test on SAMHD1 [1] was “little or no hydrolytic activity”.

Regarding `Cc1cn([C@H]2C[C@H](N=[N+]=[N-])[C@@H](CO[P@](=O)(O)O[P@](=O)(O)OP(=O)(O)O)O2)c(=O)[nH]c1=O` [AZT-TP, azidothymidine triphosphate], the “Hydrolytic activity of SAMHD1” value with SAMHD1 [1] was “little or no hydrolytic activity”.

For `Cc1cn([C@H]2C[C@H](N=[N+]=[N-])[C@@H](CO)O2)c(=O)[nH]c1=O` [AZT], the “Change in efficacy against HIV-1 infection on downregulation of SAMHD1” value in the test on HIV-1 is on record as “large decrease in the efficacy”.

As for `Nc1nc2c(ncn2COCCOP(=O)(O)OP(=O)(O)OP(=O)(O)O)c(=O)[nH]1` [Acyclovir-TP, acyclovir triphosphate], in the test on SAMHD1 [2], the “SAMHD1 inhibition (TTP hydrolysis after inclusion of test compound)” value (“SAMHD1 inhibition” for short) is recorded as “not significantly inhibited” and the “Hydrolysis by GTP-activated SAMHD1” value is “refractory to hydrolysis; also recorded: not a substrate”. A half-maximal response in test [3] (EC50) required 15.6 ± 2.2 µM.

As for `Nc1nc(Cl)nc2c1ncn2[C@@H]1O[C@H](COP(=O)(O)OP(=O)(O)OP(=O)(O)O)[C@@H](O)[C@@H]1F` [Clofarabine-TP, clofarabine triphosphate], in the test with SAMHD1 [2], the “SAMHD1 activation (TTP hydrolysis relative to control GTP)” value is on record as “no activation”, the “SAMHD1 inhibition” value was “diminished only slightly” and the “Hydrolysis by GTP-activated SAMHD1” value is reported as “hydrolyzed at a rate comparable to that of the control TTP; also recorded: hydrolyzed by SAMHD1 at a rate comparable to that of natural dNTP substrates”. For the same compound, the “nS, Hill coefficient for substrate binding” value in test [3] (GTP activator 0.2 mM) is on record as 2.8 ± 0.1. The “KS, apparent dissociation constant for substrate binding” value in test [3] (GTP activator 0.2 mM, 25°C) amounted to 67.6 ± 8.9 µM.

Turning to `Nc1nc2c(ncn2[C@@H]2O[C@H](COP(=O)(O)OP(=O)(O)OP(=O)(O)O)[C@@H](O)[C@H]2O)c(=O)[nH]1` [GTP], the “KA, apparent dissociation constant for activator binding (activator concentration for half-maximal hydrolysis of TTP substrate)” value (shortened to “KA, apparent dissociation constant”) in test [3] (25°C) was determined as 32.0 ± 4.2 µM. Further, in the test with SAMHD1 [1], the “Activation of SAMHD1” value is “activates SAMHD1 as effectively as dGTP”.

As to `Nc1nc2c(ncn2COC(CO)COP(=O)(O)OP(=O)(O)OP(=O)(O)O)c(=O)[nH]1` (stereo not drawn) [Ganciclovir-TP, ganciclovir triphosphate], in the test with SAMHD1 [2], the “SAMHD1 activation (TTP hydrolysis relative to control GTP)” value is listed as “no activation”, the “SAMHD1 inhibition” value is reported as “not significantly inhibited” and the “Hydrolysis by GTP-activated SAMHD1” value was “refractory to hydrolysis”. Also, in test [3] (GTP activator, TTP substrate (1, 0.3, 0.1 mM), competitive inhibition model), the “Ki, inhibition constant” value is on record as “No inhibition”. Also, in test [3] (25°C), the “KA, apparent dissociation constant” value was “No activation”. Further, the “KA, apparent dissociation constant” value in test [3] (25°C, listed as ganciclovir-TP) is given as “unable to activate SAMHD1”. For the same compound, the “Inhibitory effect on steady-state TTP hydrolysis by GTP-activated SAMHD1 (in words)” value in test [3] (GTP activator, TTP substrate) is given as “no effect”.

Consider `Cc1cn([C@H]2C[C@H](O)[C@@H](COP(=O)(O)OP(=O)(O)OP(=O)(O)O)O2)c(=O)[nH]c1=O` [TTP], for which the “nS, Hill coefficient for substrate binding” value in test [3] (Acyclovir-TP as activator, TTP substrate) was 3.0 ± 0.1. Further, the “KS, apparent dissociation constant for substrate binding” value in test [3] (Acyclovir-TP as activator, TTP substrate, Hill-modified model) amounted to 353 ± 16 µM; in test [3] (GTP activator 0.2 mM, 25°C), 96.3 ± 1.7 µM.

On to `Cc1cn([C@H]2C=C[C@@H](COP(=O)(O)OP(=O)(O)OP(=O)(O)O)O2)c(=O)[nH]c1=O` [d4T-TP, 2′,3′-didehydro-2′,3′-dideoxythymidine triphosphate], for which, in the test with SAMHD1 [1], the “Hydrolytic activity of SAMHD1” value was “little or no hydrolytic activity”.

Turning to `Nc1ncnc2c1ncn2[C@H]1C[C@H](O)[C@@H](COP(=O)(O)NP(=O)(O)OP(=O)(O)O)O1` [dApNHpp], in the test with SAMHD1 [2], the “SAMHD1 activation (TTP hydrolysis relative to control GTP)” value is “no activation”, the “SAMHD1 inhibition” value is given as “substantial reduction in TTP hydrolysis to near background levels” and the “Hydrolysis by GTP-activated SAMHD1” value is “refractory to hydrolysis”. In addition, the “Inhibitory effect on steady-state TTP hydrolysis by GTP-activated SAMHD1 (in words)” value in test [3] (GTP activator, TTP substrate) is “potent inhibition; also recorded: strong competitive inhibitor”. Moreover, the Ki in test [3] (read-out: Ki, inhibition constant) turned out to be 1.13 ± 0.07 µM.

`O=P(O)(O)OP(=O)(O)OP(=O)(O)O` [triphosphate]: on Ppx1, the “kcat of Ppx1 triphosphate hydrolysis” value was 338 s⁻¹ and 338 ± 31 s⁻¹.

Values taken from article PMC4291348, “A Continuous Enzyme-Coupled Assay for Triphosphohydrolase Activity of HIV-1 Restriction Factor SAMHD1” (Antimicrobial Agents and Chemotherapy, 2014).
